Test results published in US5530095A, “Peptides of melanin concentrating hormone precursor” (The Salk Institute for Biological Studies, priority 1995, dated 1996).
Bridge positions count the residues as written; N and C are the ends. Ends that are not written are not given here. Peptide text beside a SMILES is read from it.

Experiments:
[1] = system: rabbit anti-salmon MCH antibody (Antibody PBL #171); assay: Radioimmunoassay based on rabbit anti-salmon MCH antibody PBL #171 with 125I-salmon MCH tracer; assay type: binding; settings: for cross-reactivity in the salmon MCH radioimmunoassay: Antibody PBL #171
Experimental: Salmon MCH, having the formula [drawing 7] is synthesized and purified as described in Example I. It is then conjugated to human alpha-globulins (U.S. Biochemicals, Frac IV) via glutaraldehyde by a reaction well known in the art. The salmon MCH-human alpha-globulins conjugate is diluted with physiological saline (0.9%s/v) to a final concentration of 1 mg total protein per milliliter Freund's Complete Adjuvant Modified M. butyricum (Calbiochem) is emulsified with an equal volume of saline containing either 1 mg conjugate/ml (for initial injections) or 0.5 mg conjugate/ml (for boosters). For each immunization, the rabbits receive a total of 1 ml emulsion in 20-30 intradermal sites; they are injected every 2 weeks and bled through an ear vein 7 days after each booster. Blood is allowed to clot, and serum is separated from cells by centrifugation. The antiserum from each bleeding is characterized with respect to titer and affinity. Some of this antiserum is labelled PBL #171.
Salmon MCH (1 μg) is radiolabelled using 1 mCurie Na^125 I (New England Nuclear, NEZ 033L) and 1 μg Chloramine T in a total volume of 40 μl of 1.25M sodium phosphate buffer, pH 7.5. Reaction is allowed to proceed for 30-45 seconds and then immediately quenched by the addition of 10 mg bovine serum albumin (BSA). ^125 I-salmon MCH is then purified by adsorption and elution from a BondElut C18 cartridge (Analytichem International). The eluant from the C18 cartridge is reduced to about 200 μl using a Savant Speed-Vac and then further purified by HPLC using a Vydac C18 column, 0.46×25 cm, 5 μm, 300 Å pore size. Buffer A is 0.1% trifluoroacetic acid (TFA); buffer B is 60% acetonitrile in 0.1% TFA. ^125 I-salmon MCH is loaded at 35% B at a flow rate of 1.5 ml/min, and a gradient is then run to 70% B in 40 minutes. Peak tubes of radioactivity are made 0.5% final in BSA. Several peaks of radioactivity are reproducibly eluted, and the first major zone of radioactivity is routinely used for the radioimmunoassay.
Throughout the purification, fractions are monitored using an RIA based upon this rabbit anti-salmon MCH antibody. Aliquots for assay are transferred into glass tubes containing BSA (10 μl of 10 mg/ml) and dried in a Savant Speed Vac. Fractions are resuspended in RIA assay buffer and pH checked and adjusted if necessary with NaOH. The radioimmunoassay is carried out using chilled reagents and with tubes partially immersed in ice water. On day one, 100 μl of buffer with Antibody PBL #171 1/24,000 dilution (1/120,000 final dilution) is added to glass tubes containing standard or test samples or buffer only in a volume of 300 μl. All treatments are tested in duplicate. Buffer is 0.1M sodium chloride, 0.05M sodium phosphate, 0.025M ethylenediaminetetraacetic acid (EDTA), 0.1% sodium azide, pH 7.5 (SPEA buffer) with 0.1% BSA. Standards ranging from 0.5 to 2000 pg of synthetic salmon MCH are used. Samples are tested at 2-5 dose levels. After these additions, tubes are vortexed and incubated at 4 ° C. for 24 hours. On day two, 20,000 cpm of ^125 -salmon MCH with 0.5% normal rabbit serum diluted in SPEA buffer +0.1% BSA is added in a volume of 100 μl to all tubes. The tubes are vortexed and returned to the cold for approximately 24 hours. On day three, tracer bound to antibody is precipitated with sheep anti-rabbit gamma globulins (100 μl, 1/40 dilution) and 0.5 ml of 10% (w/v) polyethylene glycol (SIGMA, MW=6,000 to 8,000). Tubes are vortexed and incubated 15 to 30 minutes at room temperature. Tubes are washed with 1 ml of SPEA buffer and centrifuged at 4° C. for 30-45 minutes at 2000× g. Supernatants are decanted, and pellets are counted in a gamma counter. Results are calculated using a standard logit/log radioimmunoassay data processing program NICHD RRB, NIH.

[2] = Biological potency in mammalian assays
[3] = system: rat pituitary halves (secretion of ACTH); assay: In vitro assay using rat pituitary halves to monitor secretion of ACTH; assay type: cell-based
Experimental: In vitro assays are performed with the mammalian MCH and the synthetic salmon MCH peptides, using rat pituitary halves to monitor for the secretion of ACTH. Assays of this type are described in more detail in Proc. Natl. Acad. Sci., 85, 5556-5560 (1988). […] As a result, it is believed that mammalian MCH should be useful as a natural, peptide regulator of the pituitary-adrenal axis. It is likewise believed that mammalian MCH peptides will be useful for clinical application in the treatment of pigment disorders as well as in the diagnosis and therapy of melanoma. It is also believed that they will be effective in the treatment of certain forms of dementia and may have uses in connection with nerve damage situations.

fish melanophores = settings: cited from earlier work
[4] = system: melanosomes in amphibians; settings: cited from earlier work
[5] = system: antibodies against human GRF; assay: Cross-reaction with antibodies against human GRF; assay type: binding; settings: suggested by homology of human GRF 30-37 with NGE 12-19
Text: The sequences of the NGE's correspond to the sequences of amino acids 110-128 of the MCH precursors (see Tables 1 and 2, below). […] It is thought that NGE's, like NEI, have a biological function in vivo.

Row | Compound | cross-reactivity in the salmon MCH radioimmunoassay [1] | other results
1 | CC[C@H](C)[C@@H]1NC(=O)[C@H](Cc2ccc(O)cc2)NC(=O)[C@@H](N)CSSC[C@@H](C(=O)N2CCC[C@H]2C(=O)N[C@@H](CC(C)C)C(=O)NCC(N)=O)NC(=O)[C@H](CC(N)=O)NC(=O)[C@H](CCC(N)=O)NC1=O [oxytocin] | no cross-reactivity | –
2 | rat ACTH: rat ACTH peptide hormone (SYSMEHFRWGKPVGKKRRPVKVYPNVAENESAEAFPLEF; Corticotropin; UniProt P01194 124-162, looked up) | no cross-reactivity | –
3 | SS-28: SS-28 peptide tested for RIA cross-reactivity (SANSNPAMAPRERKAGCKNFFWKTFTSC; ends and bridges not checked; cysteine pairing not given here; UniProt P61278 89-116, looked up) | no cross-reactivity | –
4 | CSCC[C@@H]1NC(=O)[C@@H](NC(=O)[C@H](CCCNC(=N)N)NC(=O)[C@H](CC(C)C)NC(=O)[C@H](CCSC)NC(=O)[C@H](CC(=O)O)NC(=O)[C@H](Cc2ccccc2)NC(=O)[C@@H](N)CC(=O)O)CSSC[C@@H](C(=O)N[C@@H](Cc2c[nH]c3ccccc23)C(=O)N[C@@H](CCC(N)=O)C(=O)N[C@H](C(=O)O)C(C)C)NC(=O)[C@@H]2CCCN2C(=O)[C@H](CCCNC(=N)N)NC(=O)[C@H](Cc2ccc(O)cc2)NC(=O)[C@H](C(C)C)NC(=O)[C@H](CCCNC(=N)N)NC(=O)CNC(=O)[C@H](CC(C)C)NC1=O [mammalian MCH] | – | displacement in radioimmunoassays ([1]; radioimmunoassays also run with synthetic salmon MCH): shows displacement; biological potency in mammalian assays [2]: more potent reaction than the alpha-MSH and beta-MSH antagonists; modulation of ACTH secretion/production [3]: very potent modulators of ACTH production
5 | NC(=O)CC[C@@H]1NC(=O)[C@H](Cc2ccccc2)NC(=O)[C@H](Cc2ccc(O)cc2)NC(=O)[C@@H](N)CSSC[C@@H](C(=O)N2CCC[C@H]2C(=O)N[C@@H](CCCN=C(N)N)C(=O)NCC(N)=O)NC(=O)[C@H](CC(N)=O)NC1=O [arginine vasopressin] | no cross-reactivity | –
6 | CSCC[C@@H]1NC(=O)[C@@H](NC(=O)[C@H](CCCNC(=N)N)NC(=O)[C@H](CCSC)NC(=O)[C@@H](NC(=O)[C@@H](N)CC(=O)O)[C@@H](C)O)CSSC[C@@H](C(=O)N[C@@H](Cc2c[nH]c3ccccc23)C(=O)N[C@@H](CCC(=O)O)C(=O)N[C@H](C(=O)O)C(C)C)NC(=O)[C@@H]2CCCN2C(=O)[C@H](CCCNC(=N)N)NC(=O)[C@H](Cc2ccc(O)cc2)NC(=O)[C@H](C(C)C)NC(=O)[C@H](CCCNC(=N)N)NC(=O)CNC(=O)[C@H](C(C)C)NC1=O [salmon MCH] (H-DTMRCMVGRVYRPCWEV-OH; disulfide 5-14) | – | melanosome aggregation (fish melanophores): induces melanosome aggregation; effect on melanosomes in amphibians [4]: causing dispersal of melanosomes; EC50 in the radioimmunoassay ([1]; Antibody PBL #171 1/120,000 final dilution, 125I-salmon MCH tracer, n=10): 18.5 ± 3.2 pg; biological potency in mammalian assays [2]: extremely little biological potency; modulation of ACTH secretion/production [3]: substantially no effect on the secretion of ACTH
7 | Gly-XNGE -Phe-Pro-Ala-Glu-Asn-Gly-Val-Gln-Asn-Thr-Glu-Ser-Thr-Gln-Glu | – | cross-reaction of anti-GRF antibodies [5]: cross-react
8 | SS-14: SS-14 peptide tested for RIA cross-reactivity (AGCKNFFWKTFTSC; ends and bridges not checked; cysteine pairing not given here; UniProt P61278 103-116, looked up) | no cross-reactivity | –
9 | GnRH: GnRH peptide hormone (QHWSYGLRPG; ends and bridges not checked; UniProt P01148 24-33, looked up) | no cross-reactivity | –
10 | rat CRF: rat corticotropin-releasing factor (SEEPPISLDLTFHLLREVLEMARAEQLAQQAHSNRKLMEII; ends and bridges not checked; UniProt P01143 145-185, looked up) | no cross-reactivity | –
11 | rat GRF: rat growth hormone releasing factor (HADAIFTSSYRRILGQLYARKLLHEIMNRQQGERNQEQRSRFN; Somatoliberin; UniProt P09916 31-73, looked up) | no cross-reactivity | –
12 | β-MSH | no cross-reactivity | –
13 | human GRF(1-40)-OH: human growth hormone releasing factor (1-40), free acid (YADAIFTNSYRKVLGQLSARKLLQDIMSRQQGESNQERGA-OH; UniProt P01286 32-71, looked up, fragment) | no cross-reactivity | –
14 | β-endorphin (YGGFMTSEKSQTPLVTLFKNAIIKNAYKKGE; Beta-endorphin; UniProt P01189 237-267, looked up) | no cross-reactivity | –
